By AUC is commonly meant concentration integrated over time. The term Cmax denotes the maximum level reached in the sampled fluid or tissue.

These results are taken from paper PMC11538706, “Integrated Electrochemical Aptamer Biosensing and Colorimetric pH Monitoring via Hydrogel Microneedle Assays for Assessing Antibiotic Treatment” (Advanced Science, 2024).

Where two headings read alike, the source gives them in different places.

In one data set the test system is GEN aptamer. Briefly: Specificity test of GEN aptamer-modified Flex electrode. The note with it: buffer 1X PBS + 2 mM MgCl2; SWV; TOBI 10 µM, DOX 100 ng/mL. Type of data set: binding. On the procedure:
Additionally, employing the “dual‐frequency” method reduced the batch‐to‐batch variability and improved the sensor response (Figure S6, Supporting Information).
To determine the signal‐on and signal‐off frequencies for each of these aptamers, the aptamer‐modified Flex electrode was first dipped in a blank buffer and scanned (via SWV) at a range of frequencies (Ref). […] The sensor response at each target concentration and for each frequency was calculated via (I – I0) / I0, where “I” is the observed current (SWV peak height) at each condition, and “I0” is the observed current in the blank buffer. As a result, the frequency of 5 and 100 were selected as the signal‐off and signal‐on for the VAN aptamer. […] Afterward (and for the rest of the experiments), the sensor's response is defined as (I – I0) / I0, where the “I” represents the dual‐frequency current (I signal‐on / I signal‐off) at the experimental condition and “I0” represents the dual frequency current (I signal‐on / I signal‐off) of the (0 µM) buffer. To validate the selectivity of HMN‐Flex for VAN/GEN the aptamer‐functionalized Flex electrodes were subjected to non‐specific targets commonly present in ISF and their responses were recorded.

On the set-up of data set [1]: method as in PMID 24972859, PMID 29019915. The conditions noted are these: cited from earlier work.
The nature of data set [2]: PK analysis: Cmax and AUC from PK models fitted to serum and ISF concentrations. It is filed as in vivo, Male Sprague Dawley rats. The conditions noted are these: male, Sprague Dawley, rat, iv. On the procedure: The estimation of PK parameters, such as the area under the time‐concentration level curve (AUC) and the peak concentrations (Cmax) was performed using two PK models describing the observed patterns of serum and ISF concentrations (Figure S13, Supporting Information) and the Spearman correlation test was used to assess the correlation between PK parameters in serum and ISF.^[ [53] ^] The ISF VAN concentrations used for PK analysis were drawn by interpolating the sensor's response in the VAN calibration curve. The VAN AUC and Cmax from ISF and serum were correlated with correlation values of 0.82 and 0.79, respectively (Figure 5c‐iii).
We also employed the HMN‐Flex assay for detecting GEN in ISF and drawing its PK profile. […] For this purpose, the HMN‐Flex response was monitored every 10 min up to 90 min, followed by two other measurements at 6‐ and 24‐hours (h) postinjection. […] To the best of our knowledge, this is the first time reporting the changes in ISF GEN levels in the rat animal models. […] Importantly, the PK measurements obtained using HMN‐Flex closely matched those derived from conventional blood‐based measurements while the high temporal resolution offered by the HMN‐Flex assay can potentially revolutionize the current TDM.
Two distinct PK models were utilized for this purpose: one for describing antibiotic concentrations in serum, using a 1‐compartment PK model with linear elimination, and another for ISF, consisting of three compartments in series. The model fitting process was carried out using the first‐order conditional estimation method with interaction (FOCEI) routine in Nonmem v7.4, and subsequent PK profiles were simulated from the fitted models using the mrgsolve package in R. AUC and Cmax values were directly derived from the simulated PK profiles, and the correlation between these PK parameters in serum and ISF was assessed using the Spearman correlation test.

Consider `COc1cccc2c1C(=O)c1c(O)c3c(c(O)c1C2=O)C[C@@](O)(C(=O)CO)C[C@@H]3O[C@H]1C[C@H](N)[C@H](O)[C@H](C)O1` [DOX, Doxorubicin], for which, in the data set on GEN aptamer, the “GEN sensor response to non-specific targets” value is listed as “did not produce a response”.
Consider `CNC(C)C1CCC(N)C(OC2C(N)CC(N)C(OC3OCC(C)(O)C(NC)C3O)C2O)O1` (centres unmarked) [GEN, gentamicin], for which the protein binding in data set [1] is 30%. The AUC in data set [2] (ISF, 50 mg/kg, GEN, Rat # 4, dose 50 mg/kg i.v., read-out: ISF AUC (converted)) is 1070 µM·h; in data set [2] (ISF, 50 mg/kg, GEN, Rat # 5, dose 50 mg/kg i.v., read-out: ISF AUC (converted)) it was 1230 µM·h; in data set [2] (ISF, 100 mg/kg, GEN, Rat # 6, dose 100 mg/kg i.v., read-out: ISF AUC (converted)), 3490 µM·h; in data set [2] (interstitial fluid (ISF), 50 mg/kg, GEN, Rat # 2, dose 50 mg/kg i.v., read-out: ISF AUC (converted)) it was 509 µM·h; in data set [2] (interstitial fluid (ISF), 50 mg/kg, GEN, Rat # 3, dose 50 mg/kg i.v., read-out: ISF AUC (converted)) it was 776 µM·h; in data set [2] (interstitial fluid (ISF), 100 mg/kg, GEN, Rat # 1, dose 100 mg/kg i.v., read-out: ISF AUC (converted)), 848 µM·h. Moreover, the AUC in data set [2] (interstitial fluid (ISF), 100 mg/kg, GEN, Rat # 2, dose 100 mg/kg i.v., read-out: ISF AUC (converted)) was 827 µM·h; in data set [2] (serum, 50 mg/kg, GEN, Rat # 2, dose 50 mg/kg i.v., read-out: Serum AUC (converted)), 467 µM·h; in data set [2] (serum, 50 mg/kg, GEN, Rat # 3, dose 50 mg/kg i.v., read-out: Serum AUC (converted)), 321 µM·h; in data set [2] (serum, 50 mg/kg, GEN, Rat # 4, dose 50 mg/kg i.v., read-out: Serum AUC (converted)), 108 µM·h; in data set [2] (serum, 50 mg/kg, GEN, Rat # 5, dose 50 mg/kg i.v., read-out: Serum AUC (converted)), 2380 µM·h; in data set [2] (serum, 100 mg/kg, GEN, Rat # 1, dose 100 mg/kg i.v., read-out: Serum AUC (converted)), 2410 µM·h. Also, the AUC in data set [2] (serum, 100 mg/kg, GEN, Rat # 2, dose 100 mg/kg i.v., read-out: Serum AUC (converted)) is 1120 µM·h; in data set [2] (serum, 100 mg/kg, GEN, Rat # 6, dose 100 mg/kg i.v., read-out: Serum AUC (converted)) it was 3380 µM·h. Besides, the peak concentration (Cmax) came to 221 µM in data set [2] (ISF, 50 mg/kg, GEN, Rat # 4, dose 50 mg/kg i.v., read-out: ISF Cmax); 387 µM in data set [2] (ISF, 50 mg/kg, GEN, Rat # 5, dose 50 mg/kg i.v., read-out: ISF Cmax); 886 µM in data set [2] (ISF, 100 mg/kg, GEN, Rat # 6, dose 100 mg/kg i.v., read-out: ISF Cmax); 148 µM in data set [2] (interstitial fluid (ISF), 50 mg/kg, GEN, Rat # 2, dose 50 mg/kg i.v., read-out: ISF Cmax); 253 µM in data set [2] (interstitial fluid (ISF), 50 mg/kg, GEN, Rat # 3, dose 50 mg/kg i.v., read-out: ISF Cmax); 279 µM in data set [2] (interstitial fluid (ISF), 100 mg/kg, GEN, Rat # 1, dose 100 mg/kg i.v., read-out: ISF Cmax). Further, the Cmax in data set [2] (interstitial fluid (ISF), 100 mg/kg, GEN, Rat # 2, dose 100 mg/kg i.v., read-out: ISF Cmax) is 324 µM; in data set [2] (serum, 50 mg/kg, GEN, Rat # 2, dose 50 mg/kg i.v., read-out: Serum Cmax), 680 µM; in data set [2] (serum, 50 mg/kg, GEN, Rat # 3, dose 50 mg/kg i.v., read-out: Serum Cmax), 807 µM; in data set [2] (serum, 50 mg/kg, GEN, Rat # 4, dose 50 mg/kg i.v., read-out: Serum Cmax) it was 268 µM; in data set [2] (serum, 50 mg/kg, GEN, Rat # 5, dose 50 mg/kg i.v., read-out: Serum Cmax), 4100 µM; in data set [2] (serum, 100 mg/kg, GEN, Rat # 1, dose 100 mg/kg i.v., read-out: Serum Cmax), 1870 µM. Besides, the Cmax in data set [2] (serum, 100 mg/kg, GEN, Rat # 2, dose 100 mg/kg i.v., read-out: Serum Cmax) came out at 1320 µM; in data set [2] (serum, 100 mg/kg, GEN, Rat # 6, dose 100 mg/kg i.v., read-out: Serum Cmax) it was 4280 µM.
Turning to `NC[C@H]1O[C@H](O[C@H]2[C@H](O)[C@@H](O[C@H]3O[C@H](CO)[C@@H](O)[C@H](N)[C@H]3O)[C@H](N)C[C@@H]2N)[C@H](N)C[C@@H]1O` [TOBI, Tobramycin], in the data set on GEN aptamer, the “GEN sensor response to non-specific targets” value was “increase in current”.
Turning to `CN[C@H](CC(C)C)C(=O)N[C@H]1C(=O)N[C@@H](CC(N)=O)C(=O)N[C@H]2C(=O)N[C@H]3C(=O)N[C@H](C(=O)N[C@H](C(=O)O)c4cc(O)cc(O)c4-c4cc3ccc4O)[C@H](O)c3ccc(c(Cl)c3)Oc3cc2cc(c3O[C@@H]2O[C@H](CO)[C@@H](O)[C@H](O)[C@H]2O[C@H]2C[C@](C)(N)[C@H](O)[C@H](C)O2)Oc2ccc(cc2Cl)[C@H]1O` [VAN, vancomycin], the AUC in data set [2] (in vivo, 15 mg/kg, VAN, Rat # 1, dose 15 mg/kg i.v., read-out: ISF AUC (converted)) was 37 µM·h; in data set [2] (in vivo, 15 mg/kg, VAN, Rat # 1, dose 15 mg/kg i.v., read-out: Serum AUC (converted)) it was 59.1 µM·h; in data set [2] (in vivo, 15 mg/kg, VAN, Rat # 2, dose 15 mg/kg i.v., read-out: ISF AUC (converted)) it was 8.72 µM·h; in data set [2] (in vivo, 15 mg/kg, VAN, Rat # 2, dose 15 mg/kg i.v., read-out: Serum AUC (converted)) it was 50.8 µM·h; in data set [2] (in vivo, 45 mg/kg, VAN, Rat # 1, dose 45 mg/kg i.v., read-out: ISF AUC (converted)) it was 139 µM·h; in data set [2] (in vivo, 45 mg/kg, VAN, Rat # 1, dose 45 mg/kg i.v., read-out: Serum AUC (converted)), 216 µM·h. Also, the AUC in data set [2] (in vivo, 45 mg/kg, VAN, Rat # 2, dose 45 mg/kg i.v., read-out: ISF AUC (converted)) was 51.3 µM·h; in data set [2] (in vivo, 45 mg/kg, VAN, Rat # 2, dose 45 mg/kg i.v., read-out: Serum AUC (converted)), 184 µM·h. Moreover, the Cmax in data set [2] (in vivo, 15 mg/kg, VAN, Rat # 1, dose 15 mg/kg i.v., read-out: ISF Cmax) was found to be 28.3 µM; in data set [2] (in vivo, 15 mg/kg, VAN, Rat # 1, dose 15 mg/kg i.v., read-out: Serum Cmax) it was 117 µM; in data set [2] (in vivo, 15 mg/kg, VAN, Rat # 2, dose 15 mg/kg i.v., read-out: ISF Cmax), 8.4 µM; in data set [2] (in vivo, 15 mg/kg, VAN, Rat # 2, dose 15 mg/kg i.v., read-out: Serum Cmax), 99.9 µM; in data set [2] (in vivo, 45 mg/kg, VAN, Rat # 1, dose 45 mg/kg i.v., read-out: ISF Cmax), 94.5 µM; in data set [2] (in vivo, 45 mg/kg, VAN, Rat # 1, dose 45 mg/kg i.v., read-out: Serum Cmax), 254 µM. For the same compound, the Cmax in data set [2] (in vivo, 45 mg/kg, VAN, Rat # 2, dose 45 mg/kg i.v., read-out: ISF Cmax) came to 36.5 µM; in data set [2] (in vivo, 45 mg/kg, VAN, Rat # 2, dose 45 mg/kg i.v., read-out: Serum Cmax) it was 239 µM.
